Consider ten compounds from US20160002240A1, “NUCLEOSIDE ANALOG SALTS WITH IMPROVED SOLUBILITY AND METHODS OF FORMING SAME” (THE BOARD OF TRUSTEES OF THE UNIVERSITY OF ALABAMA, priority 2013, published 2016).

Where “and” joins values, the source holds several entries; their conditions need not be identical. Equal values may be shown once. Read-outs that look alike come from different tables or passages of the source. Marks after values point to notes of the source that are not given here.

Data set [1] is described as follows: Solubility in deionized water, UV absorbance at 254 nm with calibration curve. On the procedure:
The UV-VIS spectra used for development of calibration curves and for determination of the solubility values were performed on a Varian CARY 3 UV-Visible Spectrophotometer.
After filtering through Teflon syringe filters 0.2 μm), UV was used to determine the absorbance at 254 nm. A calibration curve of the compound in water was used to determine the concentration.
In a vial, 5.500 g [Cho][Acy] was mixed with 2 mL DI H2O.
(§1) A calibration curve of the compound in water was used to determine the concentration.
In a vial, 0.500 g [N1,1,1,16][Acy] was suspended in 1 mL DI H2O. The mixture was stirred for 24 h at room temperature. […] After filtering through a Teflon syringe filter (0.2 μm), 0.1 mL solution was diluted to 25 mL with DI H2O and its absorbance at 254 nm was determined.
as §1
In a vial, 4.8 g [P4,4,4,4][Acy] was suspended in 2 mL DI H2O. The mixture was stirred for 24 h at room temperature.
In a vial, 0.150 g [Acy]HCl was suspended in 1 mL DI H2O. The mixture was stirred for 24 h at room temperature. […] After filtering, 0.1 mL solution was diluted to 25 mL with DI H2O and its absorbance was determined.
In a vial, 0.2 g [Acy][Doc] was suspended in 1.5 mL DI H2O. […] To about 0.3 mL of this emulsion, water was added dropwise (mixing well each time after water was added) until a more clear mixture was obtained. […] The mixture was sonicated for about 30 min; this process (add water, sonication) was repeated until a clear solution was obtained. 0.5 mL of the clear solution obtained was diluted to 50 mL with DI H2O and UV was used to determine the absorbance at 254 nm.
as §1

Data set [2] can be described thus: Solubility in simulated biological fluids (PBS, SIF, SGF). As to conditions: for Solubility in PBS (pH = 7.4): phosphate buffer saline pH 7.4. On the procedure: For all solvents used (water, Phosphate Buffer Solution (PBS), Simulated Gastric Fluid (SGF), Simulated Intestinal Fluid (SIF)) same amount of compound/solvent was used: 0.1 g compound/0.5 mL solvent. The solutions were stirred at room temperature for 24 h. The resulting suspensions were filtered through a 0.2 μm Teflon syringe filter to obtain clear solutions. […] Deuterated dmso (dmso-d6) containing 0.05% (v/v) TMS (as internal standard) was used to run the ^1H-NMR. 0.1 mL of the filtered solutions were combined with 0.4 mL dmso-d6 w/ 0.05% (v/v) TMS (corresponding to 1.836×10-6 mols TMS). The solubility values were determined from the molar ratio between the peaks corresponding to the compound and TMS.
Solubility experiments were conducted as described in example 12.

Data set [3] can be described thus: Thermogravimetric analysis (thermal stability). In kind it is physicochemical. As to conditions: for T5%onset: Table 4, onset temperature of initial 5 wt % mass loss, nitrogen, 5° C./min. On the procedure: TGA experiments were performed on a Mettler Toledo TGA/DSC1 Star unit under a stream of nitrogen. Samples (5-20 mg) were placed on a platinum pan and were heated from 25° C. to 800° C. with a constant heating rate of 5° C./min and with a 30 min isotherm at 75° C. to remove any remaining volatiles. Decomposition temperatures (T5% onset) were reported as the onset temperature with respect to the initial 5 wt % mass loss.

For data set [4] the following is noted: cited from earlier work.
The conditions of data set [5]: at 25° C.; cited from earlier work.
[6] abbreviates: quantitative NMR, room temperature, 24 h.
Setting [7] is: simulated intestinal fluid pH 6.8 without pancreatin, quantitative NMR.

For the compound `Nc1nc2c(ncn2COCCO)c(=O)[nH]1` [Acyclovir, reference compound], in data set [1], the Water solubility is 1.42 mg/mL, the “Water solubility mg/mL (g/L)” value is 1.42 mg/mL (g/L) and the “Water solubility mol/L” value is recorded as 0.0063 (0) mol/L. The “Solubility in PBS (pH = 7.4)” value in data set [2] (determined using UV-Vis) was 1.4^b mg ‘acyclovir’/mL. Besides, in data set [2] (setting [6]), the “Solubility in PBS (pH = 7.4)” value was 1.5 mg ‘acyclovir’/mL. Further, the “Solubility in SIF (pH = 6.8)” value in data set [2] (setting [7]) was 2.22 mg ‘acyclovir’/mL. Further, in data set [3], the T5%onset was determined as 240 °C. The Oral bioavailability in data set [4] is reported as 10-20%. Further, the “Water solubility, literature value” in data set [5] was 5.77 mM.

Regarding `Nc1nc2c(ncn2COCCO)c(=O)[nH]1` [[Cho][Acy] (1)] [choline acyclovir], in data set [1], the Water solubility was 1019.42 mg/mL, the “Water solubility mg/mL (g/L)” value is listed as 1019.42 mg/mL (g/L) and the “Water solubility mol/L” value is listed as 3.1045 (81) mol/L. The compound also yielded a T5%onset in data set [3] of 128 °C.

For the compound `Cl.Nc1nc2c(ncn2COCCO)c(=O)[nH]1` [[H2Acy]Cl (6), acyclovir hydrochloride], the “Solubility in SGF (pH = 1.2)” value in data set [2] (pH 1.2) is listed as 292.8 mg ‘acyclovir’/mL. Moreover, in data set [2] (pH 6.8), the “Solubility in SIF (pH = 6.8)” value is on record as 167.0 mg ‘acyclovir’/mL. This compound also yielded a T5%onset in data set [3] of 156 °C.

On to `Nc1nc2c(ncn2COCCO)c(=O)[nH]1` [[H2Acy][Doc] (7)] [acyclovir docusate], for which, in data set [1], the “Solubility in deionized water, average” value was found to be 8.46 mg/mL; the Water solubility is recorded as 8.48 mg/mL; the “Water solubility mg/mL (g/L)” value is reported as 8.47 mg/mL (g/L); the “Water solubility mol/L” value is listed as 0.0131 (0) mol/L. Besides, in data set [1] (room temperature, stirred 24 h (acyclovir overnight), individual replicate (1st, 2nd, 3rd)), the “Solubility in deionized water, single determination” value is 13.06 mM and 13.05 mM. Also, the “Solubility in deionized water, average” value in data set [1] (room temperature, average of replicates, text of Examples) came to 13.06 mM. Also, the T5%onset in data set [3] stood at 122 °C.

Regarding `Nc1nc2c(ncn2COCCO)c(=O)[nH]1` [[N1,1,1,16][Acy] (3)] [trimethylhexadecylammonium acyclovir], in data set [1], the Water solubility was 252.18 mg/mL, the “Water solubility mg/mL (g/L)” value is on record as 252.18 mg/mL (g/L) and the “Water solubility mol/L” value is 0.4957 (4) mol/L. This compound showed a T5%onset in data set [3] of 150 °C.

The compound `Nc1nc2c(ncn2COCCO)c(=O)[nH]1` [[N4,4,4,1][Acy] (2)] [tributylmethylammonium acyclovir] had a T5%onset in data set [3] of 115 °C.

With `Nc1nc2c(ncn2COCCO)c(=O)[nH]1` [[N4,4,4,4][Acy] (5)] [tetrabutylammonium acyclovir], in data set [2] (setting [6]), the “Solubility in PBS (pH = 7.4)” value is given as 1.0 mg ‘acyclovir’/mL. In addition, the “Solubility in SIF (pH = 6.8)” value in data set [2] (setting [7]) is 144.0 mg ‘acyclovir’/mL. The compound also had a T5%onset in data set [3] of 132 °C.

As to `Nc1nc2c(ncn2COCCO)c(=O)[nH]1` [[P4,4,4,4][Acy] (4)] [tetrabutylphosphonium acyclovir], in data set [1], the Water solubility is on record as 803.89 mg/mL, the “Water solubility mg/mL (g/L)” value is recorded as 803.89 mg/mL (g/L) and the “Water solubility mol/L” value is given as 1.6622 (41) mol/L. In addition, in data set [3], the “T5% onset (onset for 5% decomposition from TGA)” value is 221 °C and the T5%onset is 221 °C.

Regarding `CC(C)[C@H](N)C(=O)OCCOCn1cnc2c(=O)[nH]c(N)nc21` [valacyclovir], the Oral bioavailability entry in data set [4] is listed as “about 55%”.

Regarding acyclovir docusate [[H2Acy][Doc] (7)], the “Stability of emulsion in water” value in data set [1] was “at least 48 h”.
